From PMC11114116 (Molecular Pharmacology, 2024)
Where two headings read alike, the source gives them in different places.

Legend:
[1] = molecular target: T1, human FABP1 (hFABP1) (Homo sapiens, UniProt P07148); assay: DAUDA displacement assay for hFABP1 binding; conditions: for Fres (% Fluorescence Remaining): residual DAUDA-FABP1 fluorescence at saturating ligand (Min of eq. 7); for Maximum decrease of DAUDA-FABP1 fluorescence at saturation: 0.3 μM FABP1, 0.5 μM DAUDA
T1 sequence (P07148 1-127): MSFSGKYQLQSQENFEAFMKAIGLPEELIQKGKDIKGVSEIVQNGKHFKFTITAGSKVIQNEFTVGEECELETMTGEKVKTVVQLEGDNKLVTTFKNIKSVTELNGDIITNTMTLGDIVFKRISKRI

[2] = molecular target: CYP2C9 (Homo sapiens, UniProt P11712); type: in vitro ADME
[3] = test system: FABP2; conditions: ref Patil et al., 2014; cited from earlier work

Chain of CYP2C9 (P11712 whole entry): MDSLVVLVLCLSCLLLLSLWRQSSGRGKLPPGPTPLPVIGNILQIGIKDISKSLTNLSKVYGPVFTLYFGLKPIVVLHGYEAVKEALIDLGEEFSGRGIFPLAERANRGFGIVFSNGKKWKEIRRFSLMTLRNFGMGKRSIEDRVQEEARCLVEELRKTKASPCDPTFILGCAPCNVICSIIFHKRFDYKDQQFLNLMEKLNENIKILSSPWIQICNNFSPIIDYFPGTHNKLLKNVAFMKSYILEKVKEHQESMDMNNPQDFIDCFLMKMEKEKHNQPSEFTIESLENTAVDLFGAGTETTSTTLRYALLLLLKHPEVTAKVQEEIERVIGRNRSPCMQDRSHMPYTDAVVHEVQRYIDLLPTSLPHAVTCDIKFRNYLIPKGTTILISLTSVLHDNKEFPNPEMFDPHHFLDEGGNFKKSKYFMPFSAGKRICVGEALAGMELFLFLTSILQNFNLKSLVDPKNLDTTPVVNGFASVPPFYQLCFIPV

EC50 [1] | Fres (% Fluorescence Remaining) [1] | Structure (SMILES) | also measured
– | 15 ± 3.0% | O=C(O)Cc1ccccc1Nc1c(Cl)cccc1Cl [Diclofenac, diclofenac] | Km at 10 min ([2]; CYP2C9 Supersomes (recombinant CYP2C9) with 20 μM hFABP1, pH 7.4, Km,apparent for 4'-OH-diclofenac formation, +FABP1, nominal diclofenac concentrations, 20 μM hFABP1, 1 nM CYP2C9 Supersomes): 5.8 ± 1.5 µM; Km at 10 min ([2]; CYP2C9 Supersomes (recombinant CYP2C9), without hFABP1, pH 7.4, Km,apparent for 4'-OH-diclofenac formation, −FABP1, nominal diclofenac concentrations, absence of FABP1, 1 nM CYP2C9 Supersomes): 1.4 ± 0.2 µM; Maximum decrease of DAUDA-FABP1 fluorescence at saturation [1]: > 82%; Maximum decrease of DAUDA-FABP1 fluorescence at saturation ([1]; listed as diclofenac): ~85%
– | 28 ± 4.9% | CC(C)Cc1ccc(C(C)C(=O)O)cc1 (centres unmarked) [Ibuprofen, ibuprofen] | –
– | 5.2 ± 2.4% | CCc1ccc(CCOc2ccc(CC3SC(=O)NC3=O)cc2)nc1 (centres unmarked) [Pioglitazone, pioglitazone] | Maximum decrease of DAUDA-FABP1 fluorescence at saturation [1]: > 82%
– | 40 ± 1.6% | C[C@@H](C(=O)O)c1ccc(-c2ccccc2)c(F)c1 [R-Flurbiprofen, (R)-flurbiprofen] | –
– | 48 ± 1.1% | C[C@H](C(=O)O)c1ccc(-c2ccccc2)c(F)c1 [S-Flurbiprofen, (S)-flurbiprofen] | –
> 40 µM | – | Nc1ccc(S(=O)(=O)Nc2ccnn2-c2ccccc2)cc1 [Sulfaphenazole, sulfaphenazole] | –

Continued, compound first:

Structure (SMILES) | EC50 [1] | Fres (% Fluorescence Remaining) [1] | also measured
CCCCC/C=C\C/C=C\C/C=C\C/C=C\CCCC(=O)O [Arachidonic Acid, arachidonic acid] | 0.42 ± 0.11 µM | 2.2 ± 3.6% | –
Cc1ccc(C)c(OCCCC(C)(C)C(=O)O)c1 [Gemfibrozil, gemfibrozil] | 5.6 ± 1.7 µM | 18 ± 2.8% | Maximum decrease of DAUDA-FABP1 fluorescence at saturation [1]: > 82%
O=C(c1ccccc1)c1ccc2n1CCC2C(=O)O (centres unmarked) [Ketorolac, ketorolac] | – | – | Displacement of fluorescent probe ANS from FABP2 [3]: did not displace
CCCCNC(=O)NS(=O)(=O)c1ccc(C)cc1 [Tolbutamide, tolbutamide] | > 40 µM | – | –
CNCCC(Oc1ccc(C(F)(F)F)cc1)c1ccccc1 (centres unmarked) [fluoxetine] | – | – | Decrease of DAUDA fluorescence in initial screen ([1]; drug at 30 μM, 0.3 μM FABP1 prebound with 0.5 μM DAUDA): All of the drugs tested except fluoxetine decreased DAUDA fluorescence
CC(C(=O)O)c1ccc(-c2ccccc2)c(F)c1 (centres unmarked) [flurbiprofen] | – | – | Kd [1]: 2 to 10 µM
